Test results as given in patent publication US20090238808A1, “Process for the identification of novel enzyme interacting compounds” (priority 2005, published 2009).

Columns and labels:
Experiment in all cases: In-lysate competition binding with kinobeads, Jurkat lysate, iTRAQ MS, relative intensity of identified proteins (Table 22)
Details in all cases: DMSO control = 1.0
[1] = biological target: T1, proteins captured on kinobeads from Jurkat cell lysate (Homo sapiens, UniProt Q13555)
T1 construct: endogenous in cells; host or cells: Jurkat clone E6-1 lysate
Experimental: (§1) This example illustrates competition binding in cell lysates (see particularly the third aspect of the invention). A test compound, Bisindolylmaleimide VIII (Bis VIII, a well known kinase inhibitor; Davies et al., 2000. Specificity and mechanism of action of some commonly used protein kinase inhibitors. Biochemical Journal 351 (Pt 1): 95-105) was added to a cell lysate thereby allowing the test compound to bind to the target proteins in the lysate. Then the lysate was contacted with the kinobeads affinity matrix to capture remaining free target proteins. The proteins bound to the kinobeads matrix were then eluted with detergent-containing buffer, separated on a SDS-polyacryamide gel and analyzed by immunodetection (Western blots) or mass spectrometry detection.
(§2) For the quantitative detection of proteins by mass spectrometry proteins were eluted from the affinity matrix and subsequently separated by SDS-Polyacrylamide gel elecrophoresis. Suitable gel areas were cut out and subjected to in-gel proteolytic digestion with trypsin.
(§3) Four tryptic digest samples (corresponding to three different Bis VIII concentrations in the lysate and one DMSO control) were labeled with ITRAQ reagents and the combined samples were analyzed in a single LC-MS/MS mass spectrometry analysis followed by peak quantification in the MS/MS spectrum (Ross et al., 2004. Multiplexed protein quantitation in Saccharomyces cerevisiae using amine-reactive isobaric tagging reagents. Mol. Cell. Proteomics 3(12): 1154-1169). […] Binding curves for individual kinases are shown (FIG. 5). The relative intensity 50 (RI50) values representing the affinity of kinase-compound pairs are similar to IC50 values reported by kinase enzyme assays (Davies et al., 2000. Specificity and mechanism of action of some commonly used protein kinase inhibitors. Biochemical Journal 351 (Pt 1): 95-105).
(§4) Aliqots of Jurkat lysate (10 mg protein) were incubated with different Bis VIII concentrations for one hour at 4° C. (0.025 μM, 0.074 μM, 0.22 μM, 0.67 μM, 2.0 μM and 6.0 μM final concentration of Bis VIII). To this end Bis VIII solutions were prepared in 100% DMSO as solvent that corresponded to 200 fold desired final Bis VIII concentration (Bis VIII from Alexis Biochemicals cat. number ALX 270-056). Five μl of these solutions were added to 1 ml of lysate resulting in the indicated final concentrations. For a control experiment 5 μl of DMSO without Bis VIII were used.
(§5) To each preincubated lysate sample 40 μl of kinobeads (see example 1) were added and incubated for one hour at 4° C. During the incubation the tubes were rotated on an end-over-end shaker (Roto Shake Genie, Scientific Industries Inc.). Beads were collected by centrifugation, transfered to Mobicol-columns (MoBiTech 10055) and washed with 10 ml 1×DP buffer containing 0.4% NP40 detergent, followed by a wash with 5 ml 1×DP buffer with 0.2% NP40. To elute the bound proteins, 100 μl 2×SDS sample buffer was added, the column was heated for 30 minutes at 50° C. and the eluate was transferred to a microfuge tube by centrifugation. Proteins were then separated by SDS-Polyacrylamide electrophoresis (SDS-PAGE). The composition and preparation of buffers is described in example 2.
(§6) The peptide extracts of samples treated with different concentrations of the test compound (0.074 μM, 0.22 μM and 0.67 μM Bis VIII) and the solvent control (0.5% DMSO) were treated with different isomers of the isobaric tagging reagent (iTRAQ Reagents Multiplex Kit, part number 4352135, Applied Biosystems, Foster City, Calif., USA). The iTRAQ reagents are a set of multiplexed, amine-specific, stable isotope reagents that can label all peptides in up to four different biological samples enabling simultaneous identification and quantitation of peptides. The iTRAQ reagents were used according to instructions provided by the manufacturer. […]

[2] = biological target: T2, proteins captured on kinobeads from Jurkat cell lysate (Homo sapiens, UniProt P51451)
T2 construct: endogenous in cells; host or cells: Jurkat clone E6-1 lysate
Experimental: as §1, §2, §3, §4, §5, §6

[3] = biological target: T3, proteins captured on kinobeads from Jurkat cell lysate (Homo sapiens, UniProt P54619)
T3 construct: endogenous in cells; host or cells: Jurkat clone E6-1 lysate
Experimental: as §1, §2, §3, §4, §5, §6

[4] = biological target: T4, proteins captured on kinobeads from Jurkat cell lysate (Homo sapiens, UniProt Q13131)
T4 construct: endogenous in cells; host or cells: Jurkat clone E6-1 lysate
Experimental: as §1, §2, §3, §4, §5, §6

[5] = biological target: T5, proteins captured on kinobeads from Jurkat cell lysate (Homo sapiens, UniProt P07947)
T5 construct: endogenous in cells; host or cells: Jurkat clone E6-1 lysate
Experimental: as §1, §2, §3, §4, §5, §6

[6] = biological target: T6, proteins captured on kinobeads from Jurkat cell lysate (Homo sapiens, UniProt P15559)
T6 construct: endogenous in cells; host or cells: Jurkat clone E6-1 lysate
Experimental: as §1, §2, §3, §4, §5, §6

[7] = biological target: T7, proteins captured on kinobeads from Jurkat cell lysate (Homo sapiens, UniProt P28482)
T7 construct: endogenous in cells; host or cells: Jurkat clone E6-1 lysate
Experimental: as §1, §2, §3, §4, §5, §6

[8] = biological target: T8, proteins captured on kinobeads from Jurkat cell lysate (Homo sapiens, UniProt P42684)
T8 construct: endogenous in cells; host or cells: Jurkat clone E6-1 lysate
Experimental: as §1, §2, §3, §4, §5, §6

[9] = biological target: T9, proteins captured on kinobeads from Jurkat cell lysate (Homo sapiens, UniProt P12931)
T9 construct: endogenous in cells; host or cells: Jurkat clone E6-1 lysate
Experimental: as §1, §2, §3, §4, §5, §6

[10] = test system: proteins captured on kinobeads from Jurkat cell lysate; design: species or system human
Experimental: as §1, §2, §3, §4, §5, §6

[11] = biological target: T10, proteins captured on kinobeads from Jurkat cell lysate (Homo sapiens, UniProt P45984)
T10 construct: endogenous in cells; host or cells: Jurkat clone E6-1 lysate
Experimental: as §1, §2, §3, §4, §5, §6

[12] = biological target: T11, proteins captured on kinobeads from Jurkat cell lysate (Homo sapiens, UniProt Q9HCP0)
T11 construct: endogenous in cells; host or cells: Jurkat clone E6-1 lysate
Experimental: as §1, §2, §3, §4, §5, §6

[13] = biological target: T12, proteins captured on kinobeads from Jurkat cell lysate (Homo sapiens, UniProt Q2M2I8)
T12 construct: endogenous in cells; host or cells: Jurkat clone E6-1 lysate
Experimental: as §1, §2, §3, §4, §5, §6

[14] = biological target: T13, proteins captured on kinobeads from Jurkat cell lysate (Homo sapiens, UniProt P24941)
T13 construct: endogenous in cells; host or cells: Jurkat clone E6-1 lysate
Experimental: as §1, §2, §3, §4, §5, §6

[15] = biological target: T14, proteins captured on kinobeads from Jurkat cell lysate (Homo sapiens, UniProt Q9H0K1)
T14 construct: endogenous in cells; host or cells: Jurkat clone E6-1 lysate
Experimental: as §1, §2, §3, §4, §5, §6

Relative Intensity, CaMK2g ([1]; 0.074 uM in lysate): 0.83 | Relative Intensity, CaMK2g ([1]; 0.67 uM in lysate): 0.88 | Relative Intensity, BLK ([2]; 0.074 uM in lysate): 0.90 | Relative Intensity, BLK ([2]; 0.67 uM in lysate): 0.83 | Relative Intensity, PRKAG1 ([3]; 0.074 uM in lysate): 0.78 | Relative Intensity, PRKAG1 ([3]; 0.67 uM in lysate): 0.68 | Relative Intensity, AMPKa1 (PRKAA1) ([4]; 0.074 uM in lysate): 0.88 | Relative Intensity, AMPKa1 (PRKAA1) ([4]; 0.67 uM in lysate): 0.91 | Relative Intensity, YES (YES1) ([5]; 0.074 uM in lysate): 0.82 | Relative Intensity, YES (YES1) ([5]; 0.67 uM in lysate): 0.87 | Relative Intensity, NQO1 ([6]; 0.074 uM in lysate): 0.84 | Relative Intensity, NQO1 ([6]; 0.67 uM in lysate): 0.87 | Relative Intensity, Erk2 (MAPK1) ([7]; 0.074 uM in lysate): 0.89 | Relative Intensity, Erk2 (MAPK1) ([7]; 0.67 uM in lysate): 0.98 | Relative Intensity, ARG (ABL2) ([8]; 0.074 uM in lysate): 0.96 | Relative Intensity, ARG (ABL2) ([8]; 0.67 uM in lysate): 0.91 | Relative Intensity, SRC ([9]; 0.074 uM in lysate): 0.93 | Relative Intensity, SRC ([9]; 0.67 uM in lysate): 0.94 | Relative Intensity, JNK2 (MAPK9) ([11]; 0.074 uM in lysate): 0.97 | Relative Intensity, JNK2 (MAPK9) ([11]; 0.67 uM in lysate): 1.04 | Relative Intensity, CK1g1 (CSNK1G1) ([12]; 0.074 uM in lysate): 1.01 | Relative Intensity, CK1g1 (CSNK1G1) ([12]; 0.67 uM in lysate): 0.96 | Relative Intensity, AAK1 ([13]; 0.074 uM in lysate): 0.82 | Relative Intensity, AAK1 ([13]; 0.67 uM in lysate): 0.75 | Relative Intensity, CDK2 ([14]; 0.074 uM in lysate): 0.89 | Relative Intensity, CDK2 ([14]; 0.67 uM in lysate): 0.65 | Relative Intensity, QIK (SNF1LK2) ([15]; 0.074 uM in lysate): 0.93 | Relative Intensity, QIK (SNF1LK2) ([15]; 0.67 uM in lysate): 0.98
Structure (SMILES): Cn1cc(C2=C(c3cn(CCCN)c4ccccc34)C(=O)NC2=O)c2ccccc21 [Bis VIII, Bisindolylmaleimide VIII]
Relative Intensity, Abl1 ([10]; 0.074 uM in lysate): 0.81 | Relative Intensity, Abl1 ([10]; 0.67 uM in lysate): 1.03
